pIC50: −log10 of the molar value. Calls of active or inactive are those of the source. No cut-off for these calls is given here.
Assays:
[1] = biological target: T1, von Hippel-Lindau disease tumor suppressor/Bromodomain-containing protein 3 (Homo sapiens) (UniProt Q15059+P40337); experiment: PROTAC activity at BRD3/VHL E3 ligase in 12 hrs BODIPY-TZ treated human T47D cells assessed as reduction in BRD3 expression at upto 2.0 uM incubated for 48 hrs by Western blot analysis; format: cell-based
[2] = biological target: T2, von Hippel-Lindau disease tumor suppressor/Bromodomain-containing protein 4 (Homo sapiens, UniProt O60885+P40337); experiment: PROTAC activity at BRD4/VHL E3 ligase in human MCF7 cells assessed as induction of degradation of intracellular BRD4 at 200 nM incubated for 48 hrs by immunofluorescence staining assay; format: cell-based
[3] = biological target: T2, von Hippel-Lindau disease tumor suppressor/Bromodomain-containing protein 4; experiment: PROTAC activity at BRD4/VHL E3 ligase in 12 hrs BODIPY-TZ treated human T47D cells assessed as suppression of c-Myc expression incubated for 48 hrs by Western blot analysis; format: cell-based
MCF7 [4] = experiment: Antitumor activity against IR808-TZ treated human MCF7 cells xenografted in BALB/c nude mouse assessed as fold increase in tumor volume at 20 mg/kg measured at day 23 post injection; format: functional; details: time 23 day
[5] = biological target: T2, von Hippel-Lindau disease tumor suppressor/Bromodomain-containing protein 4; experiment: PROTAC activity at BRD4/VHL E3 ligase in human T47D cells assessed as induction of degradation of intracellular BRD4 at 200 nM incubated for 48 hrs by immunofluorescence staining assay; format: cell-based
T47D [6] = experiment: Cytotoxicity against 12 hrs BODIPY-TZ treated human T47D cells assessed as inhbition of cell growth measured after 48 hrs by CCK-8 method; format: functional, cell-based
MCF7 [7] = experiment: Cytotoxicity against human MCF7 cells assessed as inhbition of cell growth measured after 48 hrs by CCK-8 method; format: functional, cell-based; details: MCF7, 48 h
[8] = biological target: T2, von Hippel-Lindau disease tumor suppressor/Bromodomain-containing protein 4; experiment: PROTAC activity at BRD4/VHL E3 ligase in 12 hrs BODIPY-TZ treated human MDA-MB-231 cells assessed as suppression of c-Myc expression incubated for 48 hrs by Western blot analysis; format: cell-based
MCF7 [9] = experiment: Antitumor activity against IR808-TZ treated human MCF7 cells xenografted in BALB/c nude mouse assessed as tumor growth inhibition at 20 mg/kg measured after 16 days; format: functional, organism-based; details: time 16.0 day
MCF7 [10] = experiment: Antitumor activity against IR808-TZ treated human MCF7 cells xenografted in BALB/c nude mouse model assessed as inhibition of tumor cell proliferation by measuring reduction in Ki67 staining at 20 mg/kg administered for 16 days by immunohistochemical analysis; format: functional, organism-based; details: time 16.0 day
[11] = Retention time of the compound by HPLC method; format: physicochemical
[12] = biological target: T2, von Hippel-Lindau disease tumor suppressor/Bromodomain-containing protein 4; experiment: PROTAC activity at BRD4/VHL E3 ligase in human T47D cells assessed as decrease in BRD4 expression at upto 2.0 uM incubated for 48 hrs by Western blot analysis; format: cell-based
[13] = biological target: T2, von Hippel-Lindau disease tumor suppressor/Bromodomain-containing protein 4; experiment: PROTAC activity at BRD4/VHL E3 ligase in 12 hrs BODIPY-TZ treated human T47D cells assessed as activation of caspase-3 expression incubated for 48 hrs by Western blot analysis; format: cell-based
[14] = biological target: T2, von Hippel-Lindau disease tumor suppressor/Bromodomain-containing protein 4; experiment: PROTAC activity at BRD4/VHL E3 ligase in 12 hrs BODIPY-TZ treated human T47D cells assessed as induction of degradation of BRD4 at upto 1000 nM incubated for 48 hrs in presence of MLN4924 by immunofluorescence staining assay; format: cell-based
[15] = biological target: T2, von Hippel-Lindau disease tumor suppressor/Bromodomain-containing protein 4; experiment: PROTAC activity at BRD4/VHL E3 ligase in 12 hrs BODIPY-TZ treated human MDA-MB-231 cells assessed as degradation of BRD4 expression incubated for 48 hrs by Western blot analysis; format: cell-based
[16] = biological target: T2, von Hippel-Lindau disease tumor suppressor/Bromodomain-containing protein 4; experiment: In vivo PROTAC activity at BRD4/VHL E3 ligase in BALB/c nude mouse xenografted with human MCF7 cells assessed as reduction in BRD4 protein level in tumor 10 mg/kg measured after 48 hrs in presence of IR808-TZ by Western blot analysis; format: functional, organism-based
T47D [17] = experiment: Cytotoxicity against human T47D cells assessed as inhbition of cell growth measured after 48 hrs by CCK-8 method; format: functional, cell-based
[18] = biological target: T2, von Hippel-Lindau disease tumor suppressor/Bromodomain-containing protein 4; experiment: PROTAC activity at BRD4/VHL E3 ligase in 12 hrs BODIPY-TZ treated human MDA-MB-231 cells assessed as reduction in BRD4 expression at upto 2.0 uM incubated for 48 hrs by Western blot analysis; format: cell-based
[19] = biological target: T2, von Hippel-Lindau disease tumor suppressor/Bromodomain-containing protein 4; experiment: PROTAC activity at BRD4/VHL E3 ligase in 12 hrs BODIPY-TZ treated human MCF7 cells assessed as reduction in BRD4 expression at upto 2.0 uM incubated for 48 hrs by Western blot analysis; format: cell-based
[20] = Drug uptake in 12 hrs BODIPY-TZ treated human […] cells assessed as strong fluorescence at 600 nM measured after 30 mins by fluorescence microscopy analysis; format: ADME, cell-based; details: t47d, 0.5 h, 0.6 µM
[21] = biological target: T2, von Hippel-Lindau disease tumor suppressor/Bromodomain-containing protein 4; experiment: PROTAC activity at BRD4/VHL E3 ligase in human MCF7 cells assessed as decrease in BRD4 expression at upto 2.0 uM incubated for 48 hrs by Western blot analysis; format: cell-based
MDA-MB-231 [22] = experiment: Cytotoxicity against 12 hrs BODIPY-TZ treated human MDA-MB-231 cells assessed as inhbition of cell growth measured after 48 hrs by CCK-8 method; format: functional, cell-based
MDA-MB-231 [23] = experiment: Cytotoxicity against human MDA-MB-231 cells assessed as inhbition of cell growth measured after 48 hrs by CCK-8 method; format: functional, cell-based; details: MDA-MB-231, 48 h
[24] = biological target: T2, von Hippel-Lindau disease tumor suppressor/Bromodomain-containing protein 4; experiment: PROTAC activity at BRD4/VHL E3 ligase in human MDA-MB-231 cells assessed as decrease in BRD4 expression at upto 2.0 uM incubated for 48 hrs by Western blot analysis; format: cell-based
MCF7 [25] = experiment: Antitumor activity against human MCF7 cells xenografted in BALB/c nude mouse assessed as fold increase in tumor volume at 20 mg/kg measured at day 23 post injection; format: functional; details: time 23 day
[26] = biological target: T1, von Hippel-Lindau disease tumor suppressor/Bromodomain-containing protein 3 (Homo sapiens); experiment: PROTAC activity at BRD3/VHL E3 ligase in 12 hrs BODIPY-TZ treated human MCF7 cells assessed as reduction in BRD3 expression at upto 2.0 uM incubated for 48 hrs by Western blot analysis; format: cell-based
[27] = biological target: T1, von Hippel-Lindau disease tumor suppressor/Bromodomain-containing protein 3 (Homo sapiens); experiment: PROTAC activity at BRD3/VHL E3 ligase in 12 hrs BODIPY-TZ treated human MDA-MB-231 cells assessed as reduction in […] expression at upto 2.0 uM incubated for 48 hrs by Western blot analysis; format: cell-based
[28] = biological target: T2, von Hippel-Lindau disease tumor suppressor/Bromodomain-containing protein 4; experiment: PROTAC activity at BRD4/VHL E3 ligase in 12 hrs BODIPY-TZ treated human MCF7 cells assessed as degradation of BRD4 expression incubated for 48 hrs by Western blot analysis; format: cell-based
[29] = biological target: T2, von Hippel-Lindau disease tumor suppressor/Bromodomain-containing protein 4; experiment: PROTAC activity at BRD4/VHL E3 ligase in 12 hrs BODIPY-TZ treated human MDA-MB-231 cells assessed as activation of caspase-3 expression incubated for 48 hrs by Western blot analysis; format: cell-based
[30] = biological target: T2, von Hippel-Lindau disease tumor suppressor/Bromodomain-containing protein 4; experiment: PROTAC activity at BRD4/VHL E3 ligase in 12 hrs BODIPY-TZ treated human MCF7 cells assessed as suppression of c-Myc expression incubated for 48 hrs by Western blot analysis; format: cell-based
MCF7 [31] = experiment: Antitumor activity against human MCF7 cells xenografted in BALB/c nude mouse assessed as apoptosis at 20 mg/kg measured after 48 hrs in presence of IR808-TZ by Western blot analysis; format: functional, organism-based

T1 sequence (P40337 whole entry partner): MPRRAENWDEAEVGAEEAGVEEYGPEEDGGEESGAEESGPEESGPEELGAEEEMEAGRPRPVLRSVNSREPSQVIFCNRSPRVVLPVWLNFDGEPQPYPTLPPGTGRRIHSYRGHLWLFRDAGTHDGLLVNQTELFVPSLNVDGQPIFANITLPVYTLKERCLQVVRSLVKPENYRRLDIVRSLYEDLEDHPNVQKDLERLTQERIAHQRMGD
T1 sequence (Q15059 2-726 limits assumed): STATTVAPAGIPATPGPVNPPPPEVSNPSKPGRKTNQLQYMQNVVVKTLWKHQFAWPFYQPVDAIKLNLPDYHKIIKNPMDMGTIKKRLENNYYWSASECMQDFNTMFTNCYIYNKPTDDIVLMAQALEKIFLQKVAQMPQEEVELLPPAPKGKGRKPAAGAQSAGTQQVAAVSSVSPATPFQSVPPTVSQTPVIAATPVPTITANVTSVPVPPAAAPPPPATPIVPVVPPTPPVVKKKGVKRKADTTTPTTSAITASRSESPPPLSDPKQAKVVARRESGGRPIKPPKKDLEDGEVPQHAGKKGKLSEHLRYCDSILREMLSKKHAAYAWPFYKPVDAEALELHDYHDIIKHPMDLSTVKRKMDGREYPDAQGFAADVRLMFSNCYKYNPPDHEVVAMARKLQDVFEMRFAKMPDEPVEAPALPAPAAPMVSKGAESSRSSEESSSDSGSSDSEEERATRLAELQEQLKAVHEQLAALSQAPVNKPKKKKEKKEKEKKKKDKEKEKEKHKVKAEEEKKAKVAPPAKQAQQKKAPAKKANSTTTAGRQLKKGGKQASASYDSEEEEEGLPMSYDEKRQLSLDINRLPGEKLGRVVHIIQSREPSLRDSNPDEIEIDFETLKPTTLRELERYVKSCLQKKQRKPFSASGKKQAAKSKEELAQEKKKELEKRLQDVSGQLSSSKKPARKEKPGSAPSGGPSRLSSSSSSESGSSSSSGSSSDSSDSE
T2 sequence (P40337 whole entry, looked up, other chains not shown): as the sequence (P40337 whole entry partner) above

SMILES: CC1=CC(C)=[N+]2C1=C(c1cccc(-c3nnc(C)nn3)c1)c1c(C)cc(C)n1[B-]2(F)F
- Activity [1]: Active
- Activity [2]: inactive
- Activity [3]: Active
- fold change (FC) (MCF7 [4]): 1.74
- Activity [5]: inactive
- pIC50 (T47D [6]): 6.39
- pIC50 (MCF7 [7]): 5.88
- Activity [8]: Active
- Activity (MCF7 [9]): Active
- Activity (MCF7 [10]): Active
- Retention_time [11]: 19.92 min
- Activity [12]: inactive
- Activity [13]: Active
- Activity [14]: inactive
- Activity [15]: Active
- Activity [16]: Active
- pIC50 (T47D [17]): 5.75
- Activity [18]: Active
- Activity [19]: Active
- Drug uptake [20]: Active
- Activity [21]: inactive
- pIC50 (MDA-MB-231 [22]): 6.49
- pIC50 (MDA-MB-231 [23]): 6.19
- Activity [24]: inactive
- fold change (FC) (MCF7 [25]): 5.98
- Activity [26]: Active
- Activity [27]: Active
- Activity [28]: Active
- Activity [29]: Active
- Activity [30]: Active
- Activity (MCF7 [31]): Active

Reference: ChEMBL document CHEMBL5370648, “Rational Design of Bioorthogonally Activatable PROTAC for Tumor-Targeted Protein Degradation” (J Med Chem, 2023)
